Broadly, the melting point is the temperature, or range, at which the solid turns liquid.

The test system of the first data set is male SD rats. The experiment in a line: Measurement of urinary glucose excretion in rats. The format is in vivo, rat. As to conditions: 10 mg/kg i.p. administered twice at an 8 hr interval, urine collected for 24 hr after first administration. Here is the method:
The pharmacological test of urinary glucose excretion in rat is described that follow.
Measurement of Urinary Glucose Excretion in Rats
20 mg of test compounds were dissolved in 10 mL saline containing 20% dimethylsulufoxide.
Test compound (10 mg/5 mL/kg, i.p.) was administered twice an 8 hr interval to male SD rats (6 weeks old, 3 animals/group). An equal volume of vehicle was given to the control group. Urine was collected for 24 hr after first administration in metabolic cages.
The urine was centrifuged and urine volume was measured. Glucose concentration (mg/dl) was assayed using Glucose CII test Wako (Wako Pure Chemicals, Japan). The amounts of glucose excretion during 24 hr was calculated from the following equation.
Glucose secretion (mg/24 hr)=(A×B)/100
(A; the urine volume, B; the glucose concentration)
With `CCOc1cc(OCC)c(C2OC(CO)C(O)C(O)C2O)cc1C(=O)/C=C/c1ccc2occc2c1` (stereo not shown) [Compound 6], the “Urinary glucose excretion (mg/24 hr)” value was determined as 8.9 mg/24 hr. For `COC(=O)OC[C@H]1O[C@@H](c2cc(C(=O)/C=C/c3ccc4occc4c3)c(O)cc2OC)[C@H](O)[C@@H](O)[C@@H]1O` [Compound 4, 3-(Benzo[b]furan-5-yl)-3′-(6-O-methoxycarbonyl-β-D-glucopyranosyl)-6′-hydroxy-4′-methoxy-acrylophenone], the “Urinary glucose excretion (mg/24 hr)” value was 289 mg/24 hr. The same measure, in the same setting: as for `COc1cc(O)c(C(=O)CCc2ccc3occc3c2)cc1C1OC(CO)C(O)C(O)C1O` (stereo not shown) [Compound 22], the figure is 124 mg/24 hr. `COc1cc(O)c(C(=O)/C=C/c2ccc3occc3c2)cc1[C@@H]1O[C@H](CO)[C@@H](O)[C@H](O)[C@H]1O` [Compound 3, 3-(Benzo[b]furan-5-yl)-3′-β-D-glucopyranosyl-6′-hydroxy-4′-methoxyacrylophenone]: the “Urinary glucose excretion (mg/24 hr)” value is reported as 241 mg/24 hr. Same read-out and setting: as for `COC(=O)OCC1OC(c2cc(C(=O)CCc3ccc4occc4c3)c(O)cc2OC)C(O)C(O)C1O` [Compound 5, 3-(Benzo[b]furan-5-yl)-3′-(6-O-methoxycarbonyl-β-D-glucopyranosyl)-6′-hydroxy-4′-methoxy-propiopenone], the figure is 228 mg/24 hr; as for `COc1cc(O)c(C(=O)/C=C/c2ccc3occc3c2)c(CC2OC(CO)C(O)C(O)C2O)c1` [Compound 1, 3-(Benzo[b]furan-5-yl)-1-(2′-β-D-glucopyranosylmethyl-6′-hydroxy-4′-methoxy)acrylophenone], 4.1 mg/24 hr.

Tested on in the next data set: not given
Assay: not given
Details: not given
Molecule `Cc1cc(O)c(C(=O)CCc2ccc3occc3c2)c(CC2OC(CO)C(O)C(O)C2O)c1` [Compound 52, 3-(Benzo[b]furan-5-yl)-1-[6-hydroxy-4-methyl-2-{(β-D-glucopyranos-1-yl)methyl}]propiophenone] showed a melting point of 85 to 87 °C. Consider `COc1cc(C)c(C(=O)/C=C/c2ccc3occc3c2)cc1C1OC(CO)C(O)C(O)C1O` (stereo not shown) [Compound 9], for which the melting point was in the range of 137 to 138 °C. Turning to `COc1cc(C)c(C(=O)CCc2ccc3occc3c2)cc1C1OC(CO)C(O)C(O)C1O` (stereo not shown) [Compound 27], the melting point lay within 118 to 119 °C. Still for that read-out and setting: as for `Cc1cc(O)c(C(=O)CCc2ccc3occc3c2)cc1C1OC(CO)C(O)C(O)C1O` (stereo not shown) [Compound 26], the figure is 191 to 192 °C; as for `COC(=O)OCC1OC(Cc2cc(O)cc(O)c2C(=O)CCc2ccc(O)cc2)C(O)C(O)C1O` (stereo not shown) [Compound 58], 199 to 201 °C; as for `Cc1cc(O)c(C(=O)/C=C/c2ccc3occc3c2)c(CC2OC(CO)C(O)C(O)C2O)c1` [Compound 51, 3-(Benzo[b]furan-5-yl)-1-[6-hydroxy-4-methyl-2-{(β-D-glucopyranos-1-yl)methyl}]acrylophenone], 103 to 105 °C. `COc1cc(O)c(C(=O)/C=C/c2ccc3occc3c2)cc1C1OC(COS(=O)(=O)O)C(O)C(O)C1O` [Compound 44, 3-(Benzo[b]furan-5-yl)-3′-(6-sulfonic acid-β-D-glucopyranosyl)-4′-methoxy-6′-hydroxyacrylophenone] showed a melting point of 177 to 179 °C. As to `COc1cc(O)c(C(=O)/C=C/c2ccncc2)cc1C1OC(CO)C(O)C(O)C1O` (stereo not shown) [Compound 12], the melting point was 183 to 185 °C. On the same count and under the same terms, as for `COc1cc(C)cc(CC2OC(CO)C(O)C(O)C2O)c1C(=O)/C=C/c1ccc2occc2c1` (stereo not shown) [Compound 55], the figure is 80 to 83 °C; as for `COc1cc(O)c(C(=O)CCc2ccc3occc3c2)c(OC)c1C1OC(CO)C(O)C(O)C1O` (stereo not shown) [Compound 29], 131 to 132 °C. In the case of `CCOc1cc(OCC)c(C2OC(CO)C(O)C(O)C2O)cc1C(=O)/C=C/c1ccc2occc2c1` (stereo not shown) [Compound 6], the melting point is 120 to 121 °C. Still for that read-out and setting: as for `COc1cc(C)cc(CC2OC(CO)C(O)C(O)C2O)c1C(=O)/C=C/c1ccc2occc2c1` (stereo not shown) [Compound 57], the figure is 118 to 120 °C. `COc1cc(O)c(C(=O)CCc2cc3ccccc3o2)cc1C1OC(CO)C(O)C(O)C1O` (stereo not shown) [Compound 31] returned a melting point of 216 to 217 °C.

The molecule `COC(=O)OC[C@H]1O[C@@H](c2cc(C(=O)/C=C/c3ccc4occc4c3)c(O)cc2OC)[C@H](O)[C@@H](O)[C@@H]1O` [Compound 4, 3-(Benzo[b]furan-5-yl)-3′-(6-O-methoxycarbonyl-β-D-glucopyranosyl)-6′-hydroxy-4′-methoxy-acrylophenone] gave a melting point of 195 to 196 °C. Same read-out and setting: as for `COc1cc(O)c(C(=O)CCc2ccc3occc3c2)cc1C1OC(CO)C(O)C(O)C1O` (stereo not shown) [Compound 22], the figure is 226 to 228 °C. Still for that read-out and setting: as for `Cc1cc(O)c(C(=O)/C=C/c2ccc3occc3c2)cc1C1OC(CO)C(O)C(O)C1O` (stereo not shown) [Compound 8], the figure is 228 to 229 °C. The molecule `COc1cc(O)c(C(=O)CCc2ccc3c(c2)CCC3)cc1C1OC(CO)C(O)C(O)C1O` (stereo not shown) [Compound 28] returned a melting point of 194 to 196 °C. On the same count and under the same terms, as for `COc1cc(O)c(C(=O)/C=C/c2ccc3ccccc3c2)cc1C1OC(CO)C(O)C(O)C1O` (stereo not shown) [Compound 13], the figure is 236 to 239 °C; as for `COc1cc(O)c(C(=O)/C=C/c2ccc3c(c2)CCO3)cc1C1OC(CO)C(O)C(O)C1O` (stereo not shown) [Compound 19], 276 to 279 °C. On the same count and under the same terms, as for `COc1cc(OC)c(C2OC(CO)C(O)C(O)C2O)cc1C(=O)CCc1ccc2occc2c1` (stereo not shown) [Compound 23], the figure is 112 to 113 °C; as for `CCOc1cc(O)c(C(=O)CCc2ccc3occc3c2)cc1C1OC(CO)C(O)C(O)C1O` (stereo not shown) [Compound 25], 175 to 176 °C; as for `COc1cc(O)c(C(=O)/C=C/c2ccc3occc3c2)cc1C1OC(C(=O)[O-])C(O)C(O)C1O.[Na+]` [Compound 43, 3-(Benzo[b]furan-5-yl)-3′-(6-carboxysodium salt-β-D-glucopyranosyl)4′-methoxy-6′-hydroxy-acrylophenone], 115 to 117 °C. Same read-out and setting: as for `COc1cc(O)c(C(=O)/C=C/c2ccc(C)cc2)cc1C1OC(CO)C(O)C(O)C1O` (stereo not shown) [Compound 10], the figure is 181 to 183 °C; as for `COc1cc(O)c(C(=O)CCc2ccc3[nH]ccc3c2)cc1C1OC(CO)C(O)C(O)C1O` (stereo not shown) [Compound 30], 66 to 71 °C; as for `COc1cc(O)c(C(=O)CCc2ccc3occc3c2)c(C[C@@H]2O[C@H](CO)[C@@H](O)[C@H](O)[C@H]2O)c1` [Compound 21, 3-(Benzo[b]furan-5-yl)-2′-β-D-glucopyranosylmethyl-6′-hydroxy-4′-methoxypropiophenone], 103 to 105 °C.

As for `COC(=O)OCC1OC(Cc2cc(C)cc(O)c2C(=O)CCc2ccc3occc3c2)C(O)C(O)C1O` [Compound 53, 3-Benzo [b]furan-5-yl-1-(6-hydroxy-4-methyl-2-{[6-methoxycarbonyl-β-D-glucopyranos-1-yl]methyl})propiophenone], the melting point is 58 to 60 °C.

`COc1cc(O)c(C(=O)/C=C/c2ccsc2)cc1C1OC(CO)C(O)C(O)C1O` (stereo not shown) [Compound 11]: the melting point was in the range of 239 to 242 °C. Same read-out and setting: as for `COc1cc(O)c(C(=O)CCc2ccc3occc3c2)cc1C1OC(COC(=O)CCC(=O)O)C(O)C(O)C1O` (stereo not shown) [Compound 47], the figure is 113 to 114 °C; as for `COc1cc(O)c(C(=O)/C=C/c2ccc3[nH]ccc3c2)cc1C1OC(CO)C(O)C(O)C1O` (stereo not shown) [Compound 17], 194 to 196 °C; as for `COc1cc(O)c(C(=O)/C=C/c2cc3ccccc3o2)cc1C1OC(CO)C(O)C(O)C1O` (stereo not shown) [Compound 20], 256 to 257 °C. The same measure, in the same setting: as for `CCOc1cc(OCC)c(C2OC(CO)C(O)C(O)C2O)cc1C(=O)CCc1ccc2occc2c1` (stereo not shown) [Compound 24], the figure is 89 to 90 °C; as for `COc1cc(O)c(C(=O)CCc2ccc3occc3c2)cc1C1OC(COC(=O)CCC(=O)[O-])C(O)C(O)C1O.[Na+]` (stereo not shown) [Compound 48], 262 °C. On the same count and under the same terms, as for `COc1cc(O)c(C(=O)/C=C/c2ccc3occc3c2)c(OC)c1C1OC(CO)C(O)C(O)C1O` (stereo not shown) [Compound 16], the figure is 198 to 199 °C; as for `COc1cc(O)c(C(=O)/C=C/c2ccc3occc3c2)cc1C1OC(COC(=O)CCC(=O)O)C(O)C(O)C1O` (stereo not shown) [Compound 42], 71 to 73 °C; as for `COc1cc(O)c(C(=O)/C=C/c2ccc3occc3c2)cc1[C@@H]1O[C@H](CO)[C@@H](O)[C@H](O)[C@H]1O` [Compound 3, 3-(Benzo[b]furan-5-yl)-3′-β-D-glucopyranosyl-6′-hydroxy-4′-methoxyacrylophenone], > 250 °C. On to `COc1cc(OC)c(C2OC(CO)C(O)C(O)C2O)cc1C(=O)/C=C/c1ccc2occc2c1` (stereo not shown) [Compound 2], for which the melting point was 226 to 228 °C. Still for that read-out and setting: as for `COc1cc(O)c(C(=O)/C=C/c2ccc3sccc3c2)cc1C1OC(CO)C(O)C(O)C1O` (stereo not shown) [Compound 18], the figure is 217 to 220 °C; as for `CCOc1cc(O)c(C(=O)/C=C/c2ccc3occc3c2)cc1C1OC(CO)C(O)C(O)C1O` (stereo not shown) [Compound 7], 189 to 190 °C; as for `COc1cc(O)c(C(=O)/C=C/c2ccnc3ccccc23)cc1C1OC(CO)C(O)C(O)C1O` (stereo not shown) [Compound 14], 226 to 228 °C.

`COc1cc(O)c(C(=O)/C=C/c2ccc3c(c2)CCC3)cc1C1OC(CO)C(O)C(O)C1O` (stereo not shown) [Compound 15] yielded a melting point of 245 to 248 °C. Take `O=C(CCc1ccc(O)cc1)c1c(O)cc(O)cc1CC1OC(CO)C(O)C(O)C1O` [Compound 54, 1-[2,4-Dihydroxy-6-{(β-D-glicopyranosyl)methyl}phenyl]-3-(4-hydroxyphenyl)propan-1-one]: the melting point lay in the range of 227 to 228 °C.

As to `COC(=O)OCC1OC(c2cc(C(=O)CCc3ccc4occc4c3)c(O)cc2OC)C(O)C(O)C1O` [Compound 5, 3-(Benzo[b]furan-5-yl)-3′-(6-O-methoxycarbonyl-β-D-glucopyranosyl)-6′-hydroxy-4′-methoxy-propiopenone], the melting point is 120 to 121 °C. `COc1cc(O)c(C(=O)/C=C/c2ccc3occc3c2)c(CC2OC(CO)C(O)C(O)C2O)c1` [Compound 1, 3-(Benzo[b]furan-5-yl)-1-(2′-β-D-glucopyranosylmethyl-6′-hydroxy-4′-methoxy)acrylophenone] displayed a melting point of 135 to 136 °C.

Values taken from patent US6627611B2, “C-glycosides and preparation of thereof as antidiabetic agents” (Kotobuki Pharmaceutical Co Ltd, priority 2000, dated 2003).
